Test results reported in PubChem BioAssay AID248 (DTP/NCI, 2004).
Several values for one entry are separate records, joined by “and”; a condition that tells them apart may be missing. Equal values may be shown once. Inconclusive results and toxic doses are left out. Cut-off read from the data, not from the text of the source: active = T/C of 150% or more; inactive = T/C below 125%.

Tested on: L1210 leukemia ip in BDF1 mice, survival T/C
Test: NCI In Vivo Anticancer Drug Screen. Data for tumor model L1210 Leukemia (intraperitoneal) in B6D2F1 (BDF1) mice
Conditions: endpoint: mean survival time, higher = longer survival
Outline: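 Tumor cells were implanted, animals were treated, and survival was followed. The result divides the treated measurement by the vehicle-control measurement.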

[1] = dose: 100.0 mg/kg/injection, schedule: Q01DX001 (ip), vehicle: saline
[2] = dose: 100.0 mg/kg/injection, schedule: Q01DX009 (ip), vehicle: saline
[3] = dose: 100.0 mg/kg/injection, schedule: Q04DX003 (ip), vehicle: saline
[4] = dose: 200.0 mg/kg/injection, schedule: Q01DX009 (ip), vehicle: saline
[5] = dose: 200.0 mg/kg/injection, schedule: Q04DX003 (ip), vehicle: saline
[6] = dose: 400.0 mg/kg/injection, schedule: Q01DX009 (ip), vehicle: saline
[7] = dose: 400.0 mg/kg/injection, schedule: Q04DX003 (ip), vehicle: saline
[8] = dose: 100.0 mg/kg/injection, schedule: Q01DX009 (ip), vehicle: saline with Tween-80
[9] = dose: 200.0 mg/kg/injection, schedule: Q01DX009 (ip), vehicle: saline with Tween-80
[10] = dose: 50.0 mg/kg/injection, schedule: Q01DX001 (ip), vehicle: carboxymethylcellulose (CMC)
[11] = dose: 100.0 mg/kg/injection, schedule: Q04DX003 (ip), vehicle: Klucel (hydroxypropylcellulose) (HPC)
[12] = dose: 200.0 mg/kg/injection, schedule: Q04DX003 (ip), vehicle: Klucel (hydroxypropylcellulose) (HPC)
[13] = dose: 400.0 mg/kg/injection, schedule: Q04DX003 (ip), vehicle: Klucel (hydroxypropylcellulose) (HPC)
[14] = dose: 100.0 mg/kg/injection, schedule: Q01DX001 (ip), vehicle: carboxymethylcellulose (CMC)
[15] = dose: 200.0 mg/kg/injection, schedule: Q01DX001 (ip), vehicle: carboxymethylcellulose (CMC)
[16] = dose: 400.0 mg/kg/injection, schedule: Q01DX001 (ip), vehicle: carboxymethylcellulose (CMC)

Measured: T/C

CSC(=N)N
inactive: [1] 105 % of control | [2] 99 % of control | dose: 100.0 mg/kg/injection, schedule: Q04DX002 (ip), vehicle: saline 100 % of control | [3] 101 % of control | dose: 200.0 mg/kg/injection, schedule: Q01DX001 (ip), vehicle: saline 96 % of control | [4] 91 % of control | dose: 200.0 mg/kg/injection, schedule: Q04DX002 (ip), vehicle: saline 100 % of control | [5] 97 % of control | [6] 89 % of control | [7] 97 % of control

Cc1ccc(Cl)cc1NC(=O)N1CCCCC1C (centres undefined)
inactive: dose: 50.0 mg/kg/injection, schedule: Q04DX002 (ip), vehicle: saline with Tween-80 106 % of control and 92 % of control | dose: 100.0 mg/kg/injection, schedule: Q01DX001 (ip), vehicle: saline with Tween-80 109 % of control | [8] 95 % of control and 96 % of control | dose: 100.0 mg/kg/injection, schedule: Q04DX003 (ip), vehicle: saline with Tween-80 97 % of control | dose: 200.0 mg/kg/injection, schedule: Q01DX001 (ip), vehicle: saline with Tween-80 103 % of control | [9] 94 % of control and 100 % of control | dose: 200.0 mg/kg/injection, schedule: Q04DX003 (ip), vehicle: saline with Tween-80 103 % of control | dose: 400.0 mg/kg/injection, schedule: Q01DX001 (ip), vehicle: saline with Tween-80 104 % of control | dose: 400.0 mg/kg/injection, schedule: Q04DX003 (ip), vehicle: saline with Tween-80 95 % of control

O=C(NC(CSCc1ccccc1)C(=O)Oc1ccc([N+](=O)[O-])cc1)OCc1ccccc1 (centres undefined)
inactive: dose: 12.0 mg/kg/injection, schedule: Q01DX009 (ip), vehicle: gum acacia 91 % of control | dose: 25.0 mg/kg/injection, schedule: Q01DX009 (ip), vehicle: gum acacia 111 % of control | dose: 25.0 mg/kg/injection, schedule: Q04DX003 (ip), vehicle: gum acacia 91 % of control | dose: 50.0 mg/kg/injection, schedule: Q01DX009 (ip), vehicle: gum acacia 87 % of control | dose: 50.0 mg/kg/injection, schedule: Q04DX003 (ip), vehicle: gum acacia 88 % of control | dose: 100.0 mg/kg/injection, schedule: Q04DX003 (ip), vehicle: gum acacia 92 % of control

CCN(CC)C(C)(C)CCl
inactive: [1] 104 % of control

COc1cc(C=Nc2cc(Br)c(O)c(Br)c2)ccc1N(CCCl)CCCl
active: dose: 22.0 mg/kg/injection, schedule: Q01DX001 (ip), vehicle: carboxymethylcellulose (CMC) 177 % of control | dose: 25.0 mg/kg/injection, schedule: Q01DX001 (ip), vehicle: carboxymethylcellulose (CMC) 153 % of control | [10] 161 % of control
inactive: dose: 6.4 mg/kg/injection, schedule: Q01DX009 (ip), vehicle: carboxymethylcellulose (CMC) 101 % of control | dose: 9.8 mg/kg/injection, schedule: Q01DX001 (ip), vehicle: carboxymethylcellulose (CMC) 104 % of control | dose: 14.6 mg/kg/injection, schedule: Q01DX009 (ip), vehicle: carboxymethylcellulose (CMC) 103 % of control and 111 % of control | dose: 22.0 mg/kg/injection, schedule: Q01DX009 (ip), vehicle: carboxymethylcellulose (CMC) 94 % of control

ClC1(Cl)C2CCC3(CC21)OCCO3 (centres undefined)
inactive: dose: 50.0 mg/kg/injection, schedule: Q04DX003 (ip), vehicle: Klucel (hydroxypropylcellulose) (HPC) 115 % of control | dose: 100.0 mg/kg/injection, schedule: Q01DX001 (ip), vehicle: Klucel (hydroxypropylcellulose) (HPC) 114 % of control | [11] 103 % of control | dose: 200.0 mg/kg/injection, schedule: Q01DX001 (ip), vehicle: Klucel (hydroxypropylcellulose) (HPC) 106 % of control | [12] 93 % of control | dose: 400.0 mg/kg/injection, schedule: Q01DX001 (ip), vehicle: Klucel (hydroxypropylcellulose) (HPC) 101 % of control | [13] 106 % of control

CC/C(C#N)=C(\C)C1CC1
inactive: dose: 9.5 mg/kg/injection, schedule: Q01DX001 (ip), vehicle: other 96 % of control | dose: 19.0 mg/kg/injection, schedule: Q01DX001 (ip), vehicle: other 96 % of control | dose: 38.0 mg/kg/injection, schedule: Q01DX001 (ip), vehicle: other 104 % of control

CC(C)CCOC(CN)C(Cl)(Cl)Cl (centres undefined)
inactive: dose: 25.0 mg/kg/injection, schedule: Q01DX009 (ip), vehicle: saline 96 % of control and 107 % of control | dose: 25.0 mg/kg/injection, schedule: Q04DX002 (ip), vehicle: saline 98 % of control and 106 % of control | dose: 25.0 mg/kg/injection, schedule: Q04DX003 (ip), vehicle: saline 118 % of control | dose: 50.0 mg/kg/injection, schedule: Q01DX009 (ip), vehicle: saline 96 % of control and 100 % of control | dose: 50.0 mg/kg/injection, schedule: Q04DX002 (ip), vehicle: saline 95 % of control | dose: 50.0 mg/kg/injection, schedule: Q04DX003 (ip), vehicle: saline 102 % of control | [2] 98 % of control and 100 % of control | [3] 96 % of control and 109 % of control

Cc1ccc(S(=O)(=O)N2CC3CC2CN3Cc2ccccc2)cc1 (centres undefined)
inactive: dose: 100.0 mg/kg/injection, schedule: Q01DX009 (ip), vehicle: Klucel (hydroxypropylcellulose) (HPC) 97 % of control | [11] 98 % of control | dose: 200.0 mg/kg/injection, schedule: Q01DX009 (ip), vehicle: Klucel (hydroxypropylcellulose) (HPC) 97 % of control | [12] 101 % of control | dose: 400.0 mg/kg/injection, schedule: Q01DX009 (ip), vehicle: Klucel (hydroxypropylcellulose) (HPC) 92 % of control | [13] 106 % of control

ClCCN(CCCl)c1ccc(-c2csc(Cc3ccccc3)n2)cc1
inactive: [14] 93 % of control | [15] 92 % of control | [16] 93 % of control

C1=CC2(OCCO2)C2CC=CC3(OCCO3)C2C1 (centres undefined)
inactive: [2] 113 % of control | [3] 109 % of control | [5] 98 % of control | [7] 109 % of control

COc1ccc(/C=C2\CCC3C(CCCC34OCCO4)C2=O)cc1 (centres undefined)
inactive: [2] 88 % of control | [3] 101 % of control | [4] 101 % of control | [5] 97 % of control | [6] 104 % of control | [7] 99 % of control

CCOC(=O)c1cnc(SC)nc1NC
inactive: [11] 97 % of control | [12] 99 % of control | [13] 111 % of control

Cc1ccc(S(=O)(=O)NC(=O)NC2CCCCC2)cc1
inactive: [3] 88 % of control | [5] 93 % of control | [7] 104 % of control

CCOC(=O)C(Cc1ccc(N(CCCl)CCCl)cc1)NC=O (centres undefined)
inactive: dose: 5.0 mg/kg/injection, schedule: Q01DX Z (ip), vehicle: carboxymethylcellulose (CMC) 111 % of control | dose: 10.0 mg/kg/injection, schedule: Q01DX Z (ip), vehicle: carboxymethylcellulose (CMC) 123 % of control
active: dose: 40.0 mg/kg/injection, schedule: Q01DX Z (ip), vehicle: carboxymethylcellulose (CMC) 150 % of control | dose: 88.8 mg/kg/injection, schedule: Q01DX001 (ip), vehicle: carboxymethylcellulose (CMC) 168 % of control | dose: 133.0 mg/kg/injection, schedule: Q01DX001 (ip), vehicle: carboxymethylcellulose (CMC) 168 % of control | [15] 150 % of control and 161 % of control and 170 % of control

CCCCCCCCCCCC(=O)Nc1ccccc1C(F)(F)F
inactive: dose: 100.0 mg/kg/injection, schedule: Q01DX009 (ip), vehicle: acetone 96 % of control | dose: 200.0 mg/kg/injection, schedule: Q01DX009 (ip), vehicle: acetone 95 % of control | dose: 400.0 mg/kg/injection, schedule: Q01DX009 (ip), vehicle: acetone 94 % of control

COC1=C(Nc2ccccc2C)C(=O)C(OC)=C(Nc2ccccc2C)C1=O
inactive: [10] 87 % of control | [14] 96 % of control | [15] 98 % of control | [16] 96 % of control

O=C(O)c1cn(C2CCCCC2)c(=O)[nH]c1=O
inactive: dose: 25.0 mg/kg/injection, schedule: Q01DX Z (ip), vehicle: methylcellulose (MC) 107 % of control | dose: 50.0 mg/kg/injection, schedule: Q01DX Z (ip), vehicle: methylcellulose (MC) 91 % of control

CC1C2C=CC1C(c1c3ccc(=O)cc-3oc3cc(O)ccc13)C2C(=O)O (centres undefined)
inactive: [8] 98 % of control | [9] 104 % of control | dose: 400.0 mg/kg/injection, schedule: Q01DX009 (ip), vehicle: saline with Tween-80 104 % of control
